Measured values reported in patent publication US20020035138A1, “Activating Cl- secretion” (Southern Research Institute, priority 1997, published 2002).
Entries after “also recorded” stand apart in the source; their conditions may differ. Where two headings read alike, the source gives them in different places.

Experiments:
CFPAC cells [1] = assay: Cell proliferation assay (Cell titer 96 kit); assay type: cell-based, human
Experimental: (§1) Proliferation was measured as in Hughes et al., Tumor specific killing with high bystander toxicity using the human tyrosinase promoter to express the E. coli PNP gene, Cancer Research 55: 3339-3345, 1995 and Parker et al., In vivo gene therapy of cancer with E. coli purine nucleoside phosphorylase, Human Gene Therapy, 1997 (in press) using a commercially available kit (Cell titer 96 kit, Promega) and carried out according to manufacturer's protocol. 20 μm 2931 activates Cl^− secretion in CF cells within 5 minutes. […] (FIG. 3A) cAMP levels were tested using the cAMP Immunoassay kit (Cayman) according to manufacturer's protocol.

cellular cAMP = assay: cAMP Immunoassay kit, cellular cAMP levels; assay type: cell-based, human; settings: same conditions that stimulate anion transport, FIG. 3
Experimental: as §1

T84 cells = assay: Iodide efflux protocol in T84 colonic epithelial cells; assay type: cell-based, human; settings: T84 cells expressing high levels of CFTR
Source text: (§2) The iodide efflux protocol is a conventional test for the existence of anion permeability pathways, including both CFTR (cAMP-activated) and non-CFTR permeability pathways (e.g., Ca^2+-activated Cl^− transport). […] Ionomycin, a Ca^2+ ionophore, is known to activate non-CFTR-type anion efflux pathways in CFPAC cells by increasing intracellular Ca^2+.
(§3) Epithelial cells in the pancreatic ducts, lung, and colon secrete fluid and electrolytes into the pancreatic ductular lumen, airways and intestinal lumen, respectively. The inability to secrete anions in response to a cAMP-dependent agonist such as forskolin is a hallmark of the CF phenotype. […] Methods: Iodide efflux. Iodide efflux was performed as previously described (Venglarik et al., Am. J. Physiol. 259:C358-C364, 1990, and Drumm et al., Cell 62:1227-1233, 1990) Cells were grown on […] culture dishes, and effluxes were performed when the cells were 80-100% confluent using a phosphate buffered Ringer's solution. Cells were loaded with ^125I (2-5 μCi/ml) for 30 minutes and then washed with PBS to remove extracellular ^125I. Efflux was detected by measuring the radioactivity in the extracellular solution which was changed every 15 seconds. At specific points, compounds were added to the cells. Increases in the rate of efflux after addition of a compound indicates the activation of an anion permeability pathway.

mouse intestine = assay: ISC across mouse intestine (colon sections) in Ussing chambers
Experimental: Small sections of mouse colon from both wild-type and CF knockout mice were mounted in Ussing chambers, and ISC measurements were recorded as described above. Both mucosal and serosal surfaces were bathed in regular Ringer's solution, and TTX (1.54×10^−3 μM) was added to the serosal side of the tissue. After a steady-state had been obtained, amiloride (10^−4 M) was added to the mucosal surface. Both sides were then bathed with regular Ringer's. A Cl gradient was established by bathing the mucosal surface with a 6 mM Cl^− solution. 5-diazoimidazol-4-carboxylic acid n-octyl ester (100 μM) was added first to the mucosal and then the serosal surface of the mounted tissue (FIG. 9).

[2] = system: T84 colonic epithelial cells; assay: Short circuit current (ISC) in T84 colonic epithelial cell monolayers; assay type: cell-based, human; settings: with 10 μM forskolin
Experimental: (§4) FIG 4. Cl^- secretion in CFPAC-1 cells. CFPAC-1 cell monolayers were grown to confluency on permeable supports (Millipore) for 10 days. Filters were mounted in an Ussing chamber, and short circuit current measurement was carried out as previously described ([…] and Dawson, Am. J. Physiol. 251:[…]-[…], 1986). Filters were bathed in Ringer's solution (in mM: 145 Na^+, 5 K^+, 124.8 Cl^-, 1.2 Ca^2+, 1.2 Mg^2+, 25 HCO3-, 4.2 PO4, 10 glucose; pH=7.4) on the serosal surface and in a 6 mM Cl^- Ringer's solution (118.8 mM of Cl^- was replaced by the impermeant anion gluconate) on the mucosal surface. The compounds were screened using different concentrations of drugs and adding them to alternate surfaces of the filters (mucosal; serosal; mucosal and serosal). The effects of forskolin (10 μM), UTP (100 μM) CPX (100 μm) and duramycin (5 μm) were also studied. […] Explants of CF nasal polyps (primary airway epithelial cells) and control, non-CF colonic epithelial cells (T84) containing wild-type CFTR were also studied. […] In other words, these experiments raise the possibility that Cl^- secretion effects of drugs such as adenosine, milrinone, IBMX, or forskolin might be increased by compounds employed in the present invention by a conjoint therapy treatment. […] The ISC occurs after mucosal, but not serosal addition of the compound.

CFPAC-1 cell monolayers = assay: Short circuit current (ISC) in CFPAC-1 cell monolayers, Ussing chamber; assay type: cell-based, human
Experimental: as §4, with “Filters were bathed in Ringer's solution (in mM: 145 Na^+, 5 K^+, 124.8 Cl^-, 1.2 Ca^2+, 1.2 Mg^2+, 25 HCO3-, 4.2 PO4, 10 glucose; pH=7.4) on the serosal surface and in a 6 mM Cl^- Ringer's solution (118.8 mM of Cl^- was replaced by the impermeant anion gluconate) on the mucosal surface.” left out

[3] = system: primary airway cells taken from a CF patient; assay: Iodide efflux protocol in primary airway cells taken from a CF patient; assay type: cell-based, human; settings: FIG. 2
Experimental: as §3

CFPAC cells [4] = assay: Iodide efflux protocol in CFPAC cells; assay type: cell-based, human; settings: for iodide (anion) efflux: CF pancreatic ductular cells (CFPAC), FIG. 1
Source text: as §2, §3

CF tissues = settings: including transepithelial transport in vivo; cited from earlier work
ΔF508 CFTR = target: T1, ΔF508 CFTR (Homo sapiens, UniProt P13569, DEL508-508); settings: cited from earlier work
T1 construct: host or cells: CFPAC and IB3-1 (endogenous mutant CFTR); NIH 3T3 (after expression of the ΔF508 protein)
T1 sequence (P13569 with tags, fused parts or gaps DEL508-508): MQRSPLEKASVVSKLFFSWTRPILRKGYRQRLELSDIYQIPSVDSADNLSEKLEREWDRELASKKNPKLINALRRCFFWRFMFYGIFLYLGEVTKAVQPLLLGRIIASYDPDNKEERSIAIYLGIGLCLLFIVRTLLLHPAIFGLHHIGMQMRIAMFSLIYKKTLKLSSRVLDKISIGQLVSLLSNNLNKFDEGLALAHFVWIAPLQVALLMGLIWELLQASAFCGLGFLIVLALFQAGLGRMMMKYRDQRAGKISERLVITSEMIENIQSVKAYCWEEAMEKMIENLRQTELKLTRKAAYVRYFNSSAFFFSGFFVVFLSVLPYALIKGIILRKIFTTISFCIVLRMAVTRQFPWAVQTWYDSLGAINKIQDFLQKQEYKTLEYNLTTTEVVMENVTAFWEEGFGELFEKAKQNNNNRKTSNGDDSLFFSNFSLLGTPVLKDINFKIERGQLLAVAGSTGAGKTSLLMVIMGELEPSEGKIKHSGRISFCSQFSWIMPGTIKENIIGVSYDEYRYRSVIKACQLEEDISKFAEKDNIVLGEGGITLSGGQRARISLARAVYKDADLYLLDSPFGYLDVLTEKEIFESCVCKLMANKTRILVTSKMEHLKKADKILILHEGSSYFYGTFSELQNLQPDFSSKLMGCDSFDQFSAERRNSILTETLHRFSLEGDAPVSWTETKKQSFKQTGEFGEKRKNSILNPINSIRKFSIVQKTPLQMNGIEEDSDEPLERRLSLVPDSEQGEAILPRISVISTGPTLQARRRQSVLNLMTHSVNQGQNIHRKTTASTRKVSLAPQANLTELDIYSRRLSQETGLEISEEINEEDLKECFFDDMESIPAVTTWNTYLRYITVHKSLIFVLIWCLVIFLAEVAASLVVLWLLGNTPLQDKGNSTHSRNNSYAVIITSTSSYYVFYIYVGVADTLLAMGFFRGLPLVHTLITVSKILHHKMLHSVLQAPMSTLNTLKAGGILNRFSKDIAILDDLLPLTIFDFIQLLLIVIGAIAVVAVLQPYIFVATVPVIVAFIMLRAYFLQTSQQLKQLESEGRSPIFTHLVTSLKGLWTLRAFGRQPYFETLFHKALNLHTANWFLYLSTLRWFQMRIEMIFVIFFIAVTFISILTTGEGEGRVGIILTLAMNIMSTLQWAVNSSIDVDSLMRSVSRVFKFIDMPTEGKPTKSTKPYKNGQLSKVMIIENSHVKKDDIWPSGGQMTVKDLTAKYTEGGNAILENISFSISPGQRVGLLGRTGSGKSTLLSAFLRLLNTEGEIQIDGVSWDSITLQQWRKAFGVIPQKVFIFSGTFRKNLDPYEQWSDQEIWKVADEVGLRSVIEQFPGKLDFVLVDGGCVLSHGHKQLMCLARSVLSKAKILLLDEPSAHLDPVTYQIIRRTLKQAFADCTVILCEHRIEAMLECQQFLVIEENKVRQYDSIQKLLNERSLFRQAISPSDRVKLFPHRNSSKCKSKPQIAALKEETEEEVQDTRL

[5] = 100 μM, serosal-mucosal Cl- gradient

CCCCCCCCOC(=O)C1=NC=NC1=[N+]=[N-] [5-diazoimidazol-4-carboxylic acid n-octyl ester]
proliferation of cells (CFPAC cells [1]; at concentrations that activate anion efflux, FIG. 3A): allows proliferation of cells | effects on cellular proliferation (CFPAC cells [1]; cells grown for 7 days at 20 μm): minimal effects on cellular proliferation | cellular cAMP (cellular cAMP): does not increase cellular cAMP | iodide (anion) efflux (T84 cells): strongly activated | ISC activation (mouse intestine; CFTR knock out (−/−) mice, data not shown): ISC activation is also observed | ISC activation (mouse intestine; normal mice, 100 μM, mucosal surface): activates ISC | ISC activation (mouse intestine; ΔF508 CFTR transgenic mice, 100 μM, mucosal surface): activates ISC | ISC on top of maximal forskolin activation [2]: augmented the maximal ISC activation | induced ISC in presence of BAPTA AM (CFPAC-1 cell monolayers; BAPTA AM 100 μM, FIG. 7): had no effect | potency and duration of effects relative to UTP and CPX (CFPAC-1 cell monolayers; CFPAC cells): more potent and prolonged effects | direction of ISC (CFPAC-1 cell monolayers; Cl- gradient reversed (mucosal-to-serosal)): could be reversed | ISC response (CFPAC-1 cell monolayers; Cl- omitted from mucosal and serosal bathing solutions): much less pronounced | ISC effect in presence of acetazolimide (CFPAC-1 cell monolayers; acetazolimide 100 μM): did not inhibit the effect | ISC response (CFPAC-1 cell monolayers; added to apical (mucosal) surface, serosal-to-mucosal Cl- gradient): strong ISC response | ISC response (CFPAC-1 cell monolayers; added to basolateral (serosal) surface): not basolateral | ISC response in presence of amiloride (CFPAC-1 cell monolayers; amiloride 10 μM on apical surface): did not alter this response | duration of activity (CFPAC-1 cell monolayers; compared with UTP, CPX or duramycin, same conditions, FIG. 8): of longer duration than other drugs | ISC activation without imposed gradient (CFPAC-1 cell monolayers; symmetrical Ringer's lactate): still present | induced ISC in presence of thapsagargin (CFPAC-1 cell monolayers; thapsagargin 0.1 μM, FIG. 7): had no effect | iodide (anion) efflux [3]: strongly activated | time to activation of Cl- secretion (CFPAC cells [4]; 20 μm, CF cells): ≤ 5 min | iodide (anion) efflux (CFPAC cells [4]): confers a rapid efflux of iodide; also recorded: strongly activated | anion efflux after removal of extracellular Ca2+ (CFPAC cells [4]; extracellular Ca2+ removed): does not substantially inhibit anion efflux

Nc1ncnc2c1ncn2[C@@H]1O[C@H](COP(=O)(O)OP(=O)(O)OP(=O)(O)O)[C@@H](O)[C@H]1O [ATP, adenosine triphosphate]
Cl- secretion (CF tissues): shown to activate

CCCn1c(=O)c2[nH]c(C3CCCC3)nc2n(CCC)c1=O [CPX, reference compound]
Cl- efflux (ΔF508 CFTR; NIH 3T3 cells after expression of the ΔF508 protein): could be activated | Cl- efflux (ΔF508 CFTR; airway cells derived from a CF patient (IB3-1-cell line)): could be activated | Cl- efflux (ΔF508 CFTR; human CF pancreatic cells (CFPAC-cell line)): could be activated | ISC / transepithelial Cl- secretion (CFPAC-1 cell monolayers; [5]): did not suggest strong Cl^− secretion; also recorded: do not mediate Cl^− secretion | direction of predominant ISC (CFPAC-1 cell monolayers; [5]): opposite to that expected

C[C@H](CCC(=O)O)C[C@H](C)C[C@H](C)C(=O)/C=C(\O)[C@H](C)C[C@H](C)C/C=C/[C@@H](C)[C@@H](O)[C@@H](C)[C@@H](O)C[C@@H]1CC[C@@](C)([C@H]2CC[C@@](C)([C@@H](C)O)O2)O1 [Ionomycin, reference compound]
iodide (anion) efflux (CFPAC cells [4]): anticipated stimulation of iodide efflux

O=c1ccn([C@@H]2O[C@H](COP(=O)(O)OP(=O)(O)OP(=O)(O)O)[C@@H](O)[C@H]2O)c(=O)[nH]1 [UTP, uridine triphosphate, reference compound]
Cl- secretion (CF tissues): shown to activate | ISC / transepithelial Cl- secretion (CFPAC-1 cell monolayers; [5]): small, transient activation; also recorded: smaller, transient effect

duramycin [reference compound]
ISC / transepithelial Cl- secretion (CFPAC-1 cell monolayers; 5 μm): stronger, although transient, activation
